Data as given in ChEMBL document CHEMBL5143702, “Discovery of novel bis-evodiamine derivatives with potent antitumor activity” (Bioorg Med Chem, 2022).
Values after ≈ are worked out from the molar mass of the structure shown. Blank lines part the entries; values can stand above or below the compound they belong to. Active and inactive are the calls of the source. No cut-off for these calls is given here.

Columns and labels:
HCT-116 [1] = assay: In-vitro antitumor activity against human HCT-116 cells incubated for 72 hrs by CCK8 assay; type: functional, cell-based; settings: HCT-116, 72 h
MCF7 = assay: In-vitro antitumor activity against human MCF7 cells incubated for 72 hrs by CCK8 assay; type: functional, cell-based; settings: MCF7, 72 h
A549 = assay: In-vitro antitumor activity against human A549 cells incubated for 72 hrs by CCK8 assay; type: functional, cell-based; settings: A549, 72 h
[2] = In-vitro cytotoxic activity against human HUVEC cells incubated for 72 hrs by CCK8 assay; type: toxicity, cell-based
HCT-116 [3] = assay: Inhibition of cell proliferation of human HCT-116 cells at 0.01 to 10 uM incubated for 48 hrs by RTCA assay; type: functional; settings: dose 0.01-10 µM
HCT-116 [4] = assay: Inhibition of cell colony formation of human HCT-116 cells at 0.025 to 0.5 uM by clonogenicity assay; type: functional, cell-based; settings: dose 0.025-0.5 µM
HCT-116 [5] = assay: Inhibition of cell migration of human HCT-116 cells at 0.01 to 0.15 uM incubated for 24 hrs by wound healing assay; type: functional, cell-based; settings: dose 0.01-0.15 µM
HCT-116 [6] = assay: Induction of apoptosis in human HCT-116 cells at 0.05 to 0.25 uM incubated for 48 hrs by Annexin V/PI staining based flow cytometry; type: functional, cell-based; settings: dose 0.05-0.25 µM, DDE = dose-dependent effect
HCT-116 [7] = assay: Induction of apoptosis in human HCT-116 cells assessed as increase in Bax protein expression at 0.05 to 1.5 uM incubated for 24 hrs by Western blot analysis; type: functional, cell-based; settings: dose 0.05-1.5 µM
HCT-116 [8] = assay: Induction of apoptosis in human HCT-116 cells assessed as decrease in Bcl-2 protein expression at 0.05 to 1.5 uM incubated for 24 hrs by Western blot analysis; type: functional, cell-based; settings: dose 0.05-1.5 µM
HCT-116 [9] = assay: Induction of apoptosis in human HCT-116 cells assessed as increase in p53 protein expression at 0.05 to 1.5 uM incubated for 24 hrs by Western blot analysis; type: functional, cell-based; settings: dose 0.05-1.5 µM
HCT-116 [10] = assay: Induction of apoptosis in human HCT-116 cells assessed as increase in cytochrome C protein expression at 0.05 to 1.5 uM incubated for 24 hrs by Western blot analysis; type: functional, cell-based; settings: dose 0.05-1.5 µM
HCT-116 [11] = assay: Induction of apoptosis in human HCT-116 cells assessed as reduction in cytochrome C protein expression at 1.5 uM incubated for 24 hrs by Western blot analysis; type: functional, cell-based
HCT-116 [12] = assay: Induction of apoptosis in human HCT-116 cells assessed as reduction in p53 protein expression at 1.5 uM incubated for 24 hrs by Western blot analysis; type: functional, cell-based
HCT-116 [13] = assay: Induction of cell cycle arrest in human HCT-116 cells assessed as increase in Cyclin B1 expression at 0.05 to 1.5 uM incubated for 24 hrs by Western blot analysis; type: functional, cell-based; settings: dose 0.05-1.5 µM
HCT-116 [14] = assay: Induction of cell cycle arrest in human HCT-116 cells assessed as reduction in Cdc25c expression at 0.05 to 1.5 uM incubated for 24 hrs by Western blot analysis; type: functional, cell-based; settings: dose 0.05-1.5 µM
HCT-116 [15] = assay: Induction of apoptosis in human HCT-116 cells at 0.05 uM incubated for 48 hrs by Annexin V/PI staining based flow cytometry (reference value: 3.86%); type: functional
HCT-116 [16] = assay: Induction of apoptosis in human HCT-116 cells at 0.1 uM incubated for 48 hrs by Annexin V/PI staining based flow cytometry (reference value: 3.86%); type: functional
HCT-116 [17] = assay: Induction of apoptosis in human HCT-116 cells at 0.15 uM incubated for 48 hrs by Annexin V/PI staining based flow cytometry (reference value: 3.86%); type: functional
HCT-116 [18] = assay: Induction of apoptosis in human HCT-116 cells at 0.25 uM incubated for 48 hrs by Annexin V/PI staining based flow cytometry (reference value: 3.86%); type: functional
HCT-116 [19] = assay: Induction of cell cycle arrest in human HCT-116 cells assessed as accumulation at G1 phase at 0.01 uM incubated for 48 hrs by flow cytometry (reference value: 33.16%); type: functional
HCT-116 [20] = assay: Induction of cell cycle arrest in human HCT-116 cells assessed as accumulation at G1 phase at 0.05 uM incubated for 48 hrs by flow cytometry (reference value: 33.16%); type: functional
HCT-116 [21] = assay: Induction of cell cycle arrest in human HCT-116 cells assessed as accumulation at G1 phase at 0.25 uM incubated for 48 hrs by flow cytometry (reference value: 33.16%); type: functional
HCT-116 [22] = assay: Induction of cell cycle arrest in human HCT-116 cells assessed as accumulation at G2/M phase at 0.01 uM incubated for 48 hrs by flow cytometry (reference value: 32.63%); type: functional
HCT-116 [23] = assay: Induction of cell cycle arrest in human HCT-116 cells assessed as accumulation at G2/M phase at 0.05 uM incubated for 48 hrs by flow cytometry (reference value: 32.63%); type: functional
HCT-116 [24] = assay: Induction of cell cycle arrest in human HCT-116 cells assessed as accumulation at G2/M phase at 0.25 uM incubated for 48 hrs by flow cytometry (reference value: 32.63%); type: functional
HCT-116 [25] = assay: Induction of cell cycle arrest in human HCT-116 cells assessed as accumulation at S phase at 0.01 uM incubated for 48 hrs by flow cytometry (reference value: 34.21%); type: functional
HCT-116 [26] = assay: Induction of cell cycle arrest in human HCT-116 cells assessed as accumulation at S phase at 0.05 uM incubated for 48 hrs by flow cytometry (reference value: 34.21%); type: functional
HCT-116 [27] = assay: Induction of cell cycle arrest in human HCT-116 cells assessed as accumulation at S phase at 0.25 uM incubated for 48 hrs by flow cytometry (reference value: 34.21%); type: functional
HCT-116 [28] = assay: Inhibition of cell migration of human HCT-116 cells at 0.25 uM incubated for 24 hrs by wound healing assay; type: functional, cell-based

SMILES: CN1c2ccc(F)cc2C(=O)N2CCc3c([nH]c4ccc(OC(=O)CCSSCCC(=O)Oc5ccc6[nH]c7c(c6c5)CCN5C(=O)c6cc(F)ccc6N(C)C75)cc34)C21 (configuration not stated)
IC50 (HCT-116 [1]): 170 nM
IC50 (MCF7): 410 nM
IC50 (A549): 610 nM
IC50 at 72 h [2]: 130 nM

SMILES: CC[C@@]1(O)C(=O)OCc2c1cc1n(c2=O)Cc2cc3ccccc3nc2-1 [CAMPTOTHECIN]
IC50 (HCT-116 [1]): 40 nM
IC50 (MCF7): 21 nM
IC50 (A549): 74 nM
IC50 at 72 h [2]: 12 nM

SMILES: CN1c2ccc(F)cc2C(=O)N2CCc3c([nH]c4ccc(OC(=O)CCCC(=O)Oc5ccc6[nH]c7c(c6c5)CCN5C(=O)c6cc(F)ccc6N(C)C75)cc34)C21 (configuration not stated)
MIC (HCT-116 [3]): 0.01 µM (≈ 7.71 ng/mL)
inhibition (HCT-116 [3]; DDE = dose-dependent effect): Dde
inhibition (HCT-116 [4]): Active
inhibition (HCT-116 [5]): Active
Activity (HCT-116 [6]): Dde
Activity (HCT-116 [7]): Active
Activity (HCT-116 [8]): Active
Activity (HCT-116 [9]): Active
Activity (HCT-116 [10]): Active
Activity (HCT-116 [11]): Active
Activity (HCT-116 [12]): Active
Activity (HCT-116 [13]): Active
Activity (HCT-116 [14]): Active
IC50 (HCT-116 [1]): 32 nM
IC50 (MCF7): 200 nM
IC50 (A549): 730 nM
IC50 at 72 h [2]: 580 nM
Activity (HCT-116 [15]): 47.78%
Activity (HCT-116 [16]): 54.32%
Activity (HCT-116 [17]): 58.73%
Activity (HCT-116 [18]): 75.11%
Activity (HCT-116 [19]): 42.61%
Activity (HCT-116 [20]): 40.2%
Activity (HCT-116 [21]): 34.77%
Activity (HCT-116 [22]): 30.43%
Activity (HCT-116 [23]): 59.8%
Activity (HCT-116 [24]): 65.23%
Activity (HCT-116 [25]): 26.96%
Activity (HCT-116 [26]): 0%
Activity (HCT-116 [27]): 0%

Further lines, with some results ahead:

IC50 (HCT-116 [1]): 32 nM
IC50 (MCF7): 890 nM
IC50 (A549): 680 nM
SMILES: CN1c2ccc(F)cc2C(=O)N2CCc3c([nH]c4ccc(OC(=O)CCC(=O)Oc5ccc6[nH]c7c(c6c5)CCN5C(=O)c6cc(F)ccc6N(C)C75)cc34)C21 (configuration not stated)
IC50 at 72 h [2]: 210 nM

IC50 (HCT-116 [1]): 73 nM
IC50 (MCF7): 44 nM
IC50 (A549): 460 nM
SMILES: CN1c2ccc(F)cc2C(=O)N2CCc3c([nH]c4ccc(O)cc34)C21 (configuration not stated)
inhibition (HCT-116 [28]): Active
IC50 at 72 h [2]: 260 nM
